# Patent US20240150423A1, “GLP-1 ANALOGUE-MODIFIED DIMERS WITH DIFFERENT CONFIGURATIONS, PREPARATION METHOD THEREOF, AND APPLICATION THEREOF IN TREATMENT OF TYPE II DIABETES” (Nanjing Finepeptide Biopharmaceutical Co.,Ltd, priority 2019, published 2024)
# Legend:
# [1] = T2D model treatment: body weight and organ weights; assay type: in vivo, C57B16/J mice; details: 2G3 study, 35 days
# Protocol: C57B16/J mice were placed in an SPF-level environment with a standard diet. All experimental operations were performed in accordance with the guidelines of the ethics and uses of experimental animals. […] The NaCl-PB group served as blank control and the model control group served as the T2D model control. They were injected with NaCl-PB solution. The T2D model group was fed with 60 kcal % high-fat diet (D12492, Changzhou SYSE Bio-tech. Co., Ltd., China) until the end of the experiment. Meanwhile the blank control group maintained standard diet. […] These groups were subjected to a 35-day treatment study on the basis of the high-fat diet. • 1. […] The monomeric peptides were dissolved into a saline solution (pH 6.5) for injection. • 2. […] The models were measured blood glucose at the tail and weight weighted every morning at 9 am. […] In the T2D treatment study, all T2D model mice were injected subcutaneously at the back hip in 100 μl per mouse within 30 min. The blood glucose of the experimental mice was measured every five days and the whole measurement was completed within 40 min. […] No. 8-9695-03-201-1, Novo Nordisk company, Switzerland) until the end of the 35-day experiment. • 3.
# KM mice = assay: Hypoglycemia test in fasted KM mice at multiples of the low dose; assay type: in vivo; details: 8 and 68 times of low dose, KM mice fasted for 13 hour, within 3 hours after the administration
# [2] = high dose 3.378 nmol/100 μL once a day
# [3] = low dose 0.375 nmol/100 μL once a day
# [4] = medium dose and Liraglutide group 1.126 nmol/100 μL once a day
structure (smiles),measurement,setting,value
CCCCCCCCCCCCCCCC(=O)N[C@@H](CCC(=O)NCCCC[C@H](NC(=O)[C@H](C)NC(=O)[C@H](C)NC(=O)[C@H](CCC(N)=O)NC(=O)CNC(=O)[C@H](CCC(=O)O)NC(=O)[C@H](CC(C)C)NC(=O)[C@H](Cc1ccc(O)cc1)NC(=O)[C@H](CSSC[C@H](NC(=O)[C@H](CO)NC(=O)[C@@H](NC(=O)[C@H](CC(=O)O)NC(=O)[C@H](CO)NC(=O)[C@@H](NC(=O)[C@H](Cc1ccccc1)NC(=O)[C@@H](NC(=O)CNC(=O)[C@H](CCC(=O)O)NC(=O)[C@H](C)NC(=O)[C@@H](N)Cc1c[nH]cn1)[C@@H](C)O)[C@@H](C)O)C(C)C)C(=O)N[C@@H](Cc1ccc(O)cc1)C(=O)N[C@@H](CC(C)C)C(=O)N[C@@H](CCC(=O)O)C(=O)NCC(=O)N[C@@H](CCC(N)=O)C(=O)N[C@@H](C)C(=O)N[C@@H](C)C(=O)N[C@@H](CCCCNC(=O)CC[C@H](NC(=O)CCCCCCCCCCCCCCC)C(=O)O)C(=O)N[C@@H](CCC(=O)O)C(=O)N[C@@H](Cc1ccccc1)C(=O)N[C@H](C(=O)N[C@@H](C)C(=O)N[C@@H](Cc1c[nH]c2ccccc12)C(=O)N[C@@H](CC(C)C)C(=O)N[C@H](C(=O)N[C@@H](CCCNC(=N)N)C(=O)NCC(=O)N[C@@H](CCCNC(=N)N)C(=O)NCC(=O)O)C(C)C)[C@@H](C)CC)NC(=O)[C@H](CO)NC(=O)[C@@H](NC(=O)[C@H](CC(=O)O)NC(=O)[C@H](CO)NC(=O)[C@@H](NC(=O)[C@H](Cc1ccccc1)NC(=O)[C@@H](NC(=O)CNC(=O)[C@H](CCC(=O)O)NC(=O)[C@H](C)NC(=O)[C@@H](N)Cc1c[nH]cn1)[C@@H](C)O)[C@@H](C)O)C(C)C)C(=O)N[C@@H](CCC(=O)O)C(=O)N[C@@H](Cc1ccccc1)C(=O)N[C@H](C(=O)N[C@@H](C)C(=O)N[C@@H](Cc1c[nH]c2ccccc12)C(=O)N[C@@H](CC(C)C)C(=O)N[C@H](C(=O)N[C@@H](CCCNC(=N)N)C(=O)NCC(=O)N[C@@H](CCCNC(=N)N)C(=O)NCC(=O)O)C(C)C)[C@@H](C)CC)C(=O)O [2G3 series 20],"Weight of organs, Heart",[1]; [2],0.1235 ± 0.02 g
same,"Weight of organs, Left kidney",[1]; [2],0.1661 ± 0.02 g
same,"Weight of organs, Left testis",[1]; [2],0.1070 ± 0.01 g
same,"Weight of organs, Liver",[1]; [2],1.023 ± 0.12b*c* g
same,"Weight of organs, Lung",[1]; [2],0.1523 ± 0.02 g
same,"Weight of organs, Pancreas",[1]; [2],0.3202 ± 0.07 g
same,"Weight of organs, Right kidney",[1]; [2],0.1640 ± 0.02 g
same,"Weight of organs, Right testis",[1]; [2],0.1060 ± 0.01c* g
same,"Weight of organs, Spleen",[1]; [2],0.0763 ± 0.01 g
same,"Weight of organs, adipose tissue",[1]; [2],1.0047 ± 0.30b* g
same,"Weight of organs, Heart",[1]; [3],0.1199 ± 0.01 g
same,"Weight of organs, Left kidney",[1]; [3],0.1703 ± 0.02 g
same,"Weight of organs, Left testis",[1]; [3],0.1065 ± 0.01 g
same,"Weight of organs, Liver",[1]; [3],1.138 ± 0.18a*c** g
same,"Weight of organs, Lung",[1]; [3],0.1565 ± 0.02 g
same,"Weight of organs, Pancreas",[1]; [3],0.3329 ± 0.05b* g
same,"Weight of organs, Right kidney",[1]; [3],0.1648 ± 0.02 g
same,"Weight of organs, Right testis",[1]; [3],0.1085 ± 0.01c* g
same,"Weight of organs, Spleen",[1]; [3],0.0794 ± 0.02 g
same,"Weight of organs, adipose tissue",[1]; [3],1.2216 ± 0.41a*c* g
same,"Weight of organs, Heart",[1]; [4],0.1207 ± 0.01 g
same,"Weight of organs, Left kidney",[1]; [4],0.1750 ± 0.02c* g
same,"Weight of organs, Left testis",[1]; [4],0.1041 ± 0.01 g
same,"Weight of organs, Liver",[1]; [4],1.048 ± 0.06a*b*c *** g
same,"Weight of organs, Lung",[1]; [4],0.1429 ± 0.02 g
same,"Weight of organs, Pancreas",[1]; [4],0.3115 ± 0.03 g
same,"Weight of organs, Right kidney",[1]; [4],0.1617 ± 0.01 g
same,"Weight of organs, Right testis",[1]; [4],0.1052 ± 0.01c* g
same,"Weight of organs, Spleen",[1]; [4],0.0807 ± 0.01a* g
same,"Weight of organs, adipose tissue",[1]; [4],1.0369 ± 0.44b* g
same,hypoglycemia,KM mice,did not induce any one of 6 KM mice fasted for 13 hour to produce hypoglycemia
